Assays:
[1] = tested on: SB.msgc-1; assay: viability at highest tested concentration (MAXR) relative to DMSO; higher = less cytotoxic; conditions: SB.msgc-1 (sporadic gastric cancer)
In short: (§1)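 Gastric cancer cells derived from hereditary or sporadic patients were treated for 48 h with compound at 11 threefold dilutions, with the top concentration recorded per compound. Viability was then read by CellTiter-Glo luminescence. Data are viability normalised to DMSO, at the highest concentration or as trapezoidal area under the curve.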

[2] = tested on: SB.mhdgc-1; assay: as above; conditions: SB.mhdgc-1 (hereditary c.1380delA CDH1 gastric cancer)
In short: as §1

[3] = tested on: SB.msgc-1; assay: area under the dose-response curve of % viability (trapezoidal, 11 doses) (% viability x log10 concentration); higher = less cytotoxic; conditions: SB.msgc-1 (sporadic gastric cancer)
In short: as §1

[4] = tested on: SB.mhdgc-1; assay: as above; conditions: SB.mhdgc-1 (hereditary c.1380delA CDH1 gastric cancer)
In short: as §1

| Structure (SMILES) | viability [1] [%] | viability [2] [%] | area under the dose-response curve [3] | area under the dose-response curve [4] |
| --- | --- | --- | --- | --- |
| c1ccc(CNc2nc(NCc3ccccc3)c3ccccc3n2)cc1 (top concentration 46.0829 µM) | 19 | 0.751 | 456 | 448 |
| c1ccc(CNc2nc(N3CCOc4ccccc43)nc3c2CCCC3)cc1 (top concentration 46.0829 µM) | 61.9 | 98.1 | 480 | 550 |
| CC(C)Oc1ccc(C(=O)N[C@H](CNC(=O)CN(C)C)Cc2ccc(-c3cn4cccc([C@H](C)O)c4n3)cc2)cc1Cl (top concentration 46.0829 µM) | 38.2 | 13.2 | 364 | 397 |
| C=CC(=O)Nc1cccc(Nc2nc(NC3CCC(N(C)C)CC3)nc3c2ncn3C(C)C)c1 (stereo unspecified) (top concentration 46.0829 µM) | 49.4 | 2.91 | 344 | 163 |
| CC(O)(C#Cc1ccc2c(c1)N(c1nc(N)ncc1Cl)CC2)c1nccs1 (stereo unspecified) (top concentration 46.0829 µM) | 56.3 | 41.6 | 486 | 453 |
| CC1(C)Cc2c(sc(NC(=S)NC(=O)c3ccccc3)c2C(=O)O)CO1 (top concentration 46.0829 µM) | 47.7 | 23.8 | 502 | 480 |
| C=CC(=O)Nc1cc(NC(=O)c2ccc(C)c(NC(=O)c3ccno3)c2)cc(C(F)(F)F)c1 (top concentration 46.0829 µM) | 36.4 | 4.49 | 504 | 521 |
| Cc1ccc(CN2CCNCC2)cc1NC(=O)CNc1ccc(F)c(F)c1 (top concentration 46.0829 µM) | 32.8 | 48.3 | 488 | 407 |
| Cc1ccc(/C=N/NC(=O)c2ccccc2Oc2ccccc2)o1 (top concentration 46.0829 µM) | 71.4 | 76.1 | 518 | 509 |
| Cc1n[nH]c2ccc(-c3cncc(OC[C@@H](N)Cc4c[nH]c5ccccc45)c3)cc12 (top concentration 46.0829 µM) | 29 | 8.18 | 392 | 399 |
| CCCCOc1ccc(C(=O)Nc2ccc(F)cc2F)cc1 (top concentration 46.0829 µM) | 58.2 | 114 | 348 | 522 |
| CCN(CC)CCCCNc1ncc2c(n1)N(C)C(=O)N(c1c(Cl)c(OC)cc(OC)c1Cl)C2 (top concentration 46.0829 µM) | 41.3 | 30.5 | 513 | 456 |
| Cc1cn2cc(C(=O)N(C)CCO)cc(N[C@@H]3CCOc4cccc(C)c43)c2n1 (top concentration 46.0829 µM) | 108 | 121 | 505 | 576 |
| CNC(=O)c1ccc(-c2cnc3ncc(Cc4ccc5ncccc5c4)n3n2)cc1F (top concentration 46.0829 µM) | 81.2 | 72.6 | 479 | 521 |
| CNC(=O)c1ccc(Nc2cc(Nc3ccccc3[S+](=O)([O-])C(C)C)c3cc[nH]c3n2)nc1 (top concentration 46.0829 µM) | 15.6 | 14.3 | 480 | 517 |
| CNc1nc(-c2ccc3c(N)n[nH]c3c2)cc(N2C[C@@H](C(=O)NC3CCCCC3)CC[C@H]2C)n1 (top concentration 46.0829 µM) | 14.5 | 8.83 | 423 | 376 |
| COc1ccccc1N1CCN(CCN(C(=O)C2CCCCC2)c2ccccn2)CC1 (top concentration 46.0829 µM) | 89.5 | 96.2 | 534 | 505 |
| COc1cc(N2CCC(C(N)=O)CC2)ccc1Nc1nc(N)c(Cl)c(Nc2ccccc2[S+](=O)([O-])C(C)C)n1 (top concentration 46.0829 µM) | 28.1 | 27.7 | 411 | 417 |
| COc1cc(N2CCN(C)CC2)ccc1Nc1nc(N)c(C(=O)c2c(Cl)cccc2Cl)s1 (top concentration 46.0829 µM) | 53.8 | 35.6 | 478 | 457 |
| COc1cccc2c(NCc3ccccc3)nc(-n3c(N)nc4ccccc43)nc12 (top concentration 46.0829 µM) | 0.276 | 1.2 | 424 | 425 |
| COC1=CC(=CC(=C1)C2=CC=C3N=CC\4=C(N(C(=O)\C=C4)C5=CC(=C(C=C5)N6CCNCC6)C(F)(F)F)C3=C2)OC (top concentration 46.0829 µM) | 16.9 | 2.73 | 453 | 376 |
| COc1cc(NC(=O)c2ccc(-c3ccc(Cl)cc3)o2)cc(OC)c1 (top concentration 46.0829 µM) | 3.84 | 3.96 | 457 | 379 |
| COc1cc(-c2nn(C3CCC(N4CCN(C(C)=O)CC4)CC3)c3ncnc(N)c23)ccc1NC(=O)c1cc2ccccc2n1C (stereo unspecified) (top concentration 46.0829 µM) | 3.58 | 3.1 | 442 | 460 |
| COc1cc(C(=O)NC2CCN(C)CC2)ccc1Nc1ncc2c(n1)N(C1CCCC1)CCC(=O)N2C(C)C (top concentration 46.0829 µM) | 28.1 | 4.01 | 533 | 402 |

From the supplement of paper PMC5412046
